In patent US10391101B2, “Derivatives of 7-fluoro-8-chloro-5H-dibenzo [B,E,] [1,4] diazepine and use thereof” (VALENTEK LLC, priority 2014, dated 2019):
Each block holds one compound with its values, some of them ahead of it.

Tests used:
[1] = Sedation study, total distance traveled; settings: CF-1 mice
[2] = 5-oxytriptophan hyperkinesia (head twitches); assay type: in vivo; settings: mice, intragastric 1.0-10.0 mg/kg, 5-oxytriptophan 300 mg/kg i.p.
Protocol: It is known that the precursor of serotonin (5-oxytriptophan, 5-OT) causes a specific hyperkinesia in mice in the form of head-twitching with average duration of 30-60 minutes, which is explained by the activation of serotonergic system of the CNS. […] Each experimental group included 10 male mice weighing 20-22 g. The test substances were administered intragastrically at 1.0, 2.5, 5.0 and 10.0 mg/kg 30 minutes before the intraperitoneal administration of 5-oxytriptophan at a dose of 300 mg/kg. We counted the number of head twitches per 1 minute at intervals of 10 minutes during 60 minutes.

[3] = Leucht et al., Lancet 2013; cited from earlier work
[4] = Sub-chronic toxicity, morphological parameters of blood (neutrophil kinetics); assay type: in vivo; settings: rats, intragastric 5 mg/kg daily for 28 days
From the text: The positive effect of the introduction of fluorine has been observed in pre-clinical studies of sub-chronic toxicity. […]. Increase in the number of neutrophils has been observed among rats after administration of aminoglutethimide, which also involves a high risk of agranulocytosis (Ng, W. et. al., Chem Res Toxicol, 2013, 26, 1272-81). Thus changes in the kinetics of neutrophils after intake of the medication can serve as a biomarker to predict the risk of agranulocytosis.
The neutrophil kinetics has been studied within comparative tests of sub-chronic toxicity. Studies have been conducted using rats upon intragastric administration of the substance at a dose of 5 mg/kg. The test substances were administered daily for 28 days. Each experimental group was composed of 10 animals of each sex.

[5] = cited from earlier work
D2 dopamine receptors = D2 dopamine receptors (Homo sapiens, UniProt P14416); experiment: cell-based; settings: determined by IC50 values in the set-up of antagonism
Protocol: (§1) The response on cells expressing D2 receptors was determined according to the change in the cell conductibility induced by redistribution of intracellular calcium. For D4 receptor the level of second messenger—cAMP was taken as the criterion.

H4 receptor = H4 receptor (Homo sapiens, UniProt Q9H3N8); experiment: H4 histamine receptor functional experiment, agonism set-up (cell conductibility); assay type: cell-based
Protocol: (§2) The functional activity of compounds on the H4 receptor was determined according to the change in the cell conductibility induced by redistribution of intracellular calcium. The activity for H1 receptor was determined according to the fluorescence of Fluo-4 NW indicator introduced into cells induced by the change in Ca2+ ion concentration in the cytosol.
(§3) Functional experiments were performed in the set-up of agonism and antagonism. In the set-up of agonism the test substance was added directly to the cells expressing the receptor and was determined as the dependence of the response intensity on the substance concentration. Concentration at which the half-peak response (EC50) could be reached served as a measure of activity of agonists.
(§4) In the set-up of antagonism, the ability of test substances to block the action of agonists was assessed. For this purpose, cells were incubated with the test substances, then the reference agonists were added in the system and the functional response was determined.

H1 receptor = H1 receptor (Homo sapiens, UniProt P35367); experiment: H1 histamine receptor functional experiment, antagonism set-up (Fluo-4 NW Ca2+ fluorescence); assay type: cell-based
Protocol: as §2, §3, §4

D4 dopamine receptors = target: T1, D4 dopamine receptors (Homo sapiens, UniProt P21917); experiment: D4 dopamine receptor antagonism, Kb from IC50 (cAMP level); assay type: cell-based; settings: for Kb: determined by IC50 values in the set-up of antagonism; for Therapeutic window (Kb, D2/Kb, D4): ratio of the applicant's Kb values
T1 sequence (P21917 1-419): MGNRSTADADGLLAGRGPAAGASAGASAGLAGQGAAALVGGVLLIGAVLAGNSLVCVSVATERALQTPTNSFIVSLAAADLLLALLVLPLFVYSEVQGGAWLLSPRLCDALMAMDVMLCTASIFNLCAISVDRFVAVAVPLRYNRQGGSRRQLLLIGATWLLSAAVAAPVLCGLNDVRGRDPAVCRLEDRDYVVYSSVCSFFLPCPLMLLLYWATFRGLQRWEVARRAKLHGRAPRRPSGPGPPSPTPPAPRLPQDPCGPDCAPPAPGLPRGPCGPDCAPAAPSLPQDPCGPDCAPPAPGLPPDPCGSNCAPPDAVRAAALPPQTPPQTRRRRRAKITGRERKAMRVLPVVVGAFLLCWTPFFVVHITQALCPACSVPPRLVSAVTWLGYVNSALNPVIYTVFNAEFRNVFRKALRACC
Protocol: as §1

M1 receptors = target: T2, M1 receptors (Homo sapiens, UniProt P11229); experiment: M1 receptor activation functional study (Fluo-4 NW Ca2+ fluorescence); assay type: cell-based; settings: concentration-response curves, FIG. 2
T2 sequence (P11229 1-460): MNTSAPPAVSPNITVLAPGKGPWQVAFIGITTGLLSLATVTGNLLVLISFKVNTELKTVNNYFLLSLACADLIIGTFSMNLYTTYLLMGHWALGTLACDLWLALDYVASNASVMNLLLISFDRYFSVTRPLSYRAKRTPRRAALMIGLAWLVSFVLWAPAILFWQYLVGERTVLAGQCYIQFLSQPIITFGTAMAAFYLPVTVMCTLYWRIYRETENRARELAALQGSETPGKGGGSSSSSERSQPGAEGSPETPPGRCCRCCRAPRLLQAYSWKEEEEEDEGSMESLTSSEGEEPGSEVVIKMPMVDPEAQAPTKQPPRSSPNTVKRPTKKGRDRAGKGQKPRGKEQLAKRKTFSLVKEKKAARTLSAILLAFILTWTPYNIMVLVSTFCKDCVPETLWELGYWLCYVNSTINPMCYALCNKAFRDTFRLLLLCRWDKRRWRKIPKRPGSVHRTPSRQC
Protocol: The activity was determined according to the fluorescence of Fluo-4 NW indicator introduced into cells induced by the change in Ca2+ ion concentration in the cytosol.

[6] = Metabolism and distribution of fluoroclozapine in tissues; settings: rats, single oral fluoroclozapine 10 mg/kg
M4 muscarinic receptor = target: T3, M4 muscarinic receptor (Homo sapiens, UniProt P08173); experiment: cell-based
T3 sequence (P08173 1-479): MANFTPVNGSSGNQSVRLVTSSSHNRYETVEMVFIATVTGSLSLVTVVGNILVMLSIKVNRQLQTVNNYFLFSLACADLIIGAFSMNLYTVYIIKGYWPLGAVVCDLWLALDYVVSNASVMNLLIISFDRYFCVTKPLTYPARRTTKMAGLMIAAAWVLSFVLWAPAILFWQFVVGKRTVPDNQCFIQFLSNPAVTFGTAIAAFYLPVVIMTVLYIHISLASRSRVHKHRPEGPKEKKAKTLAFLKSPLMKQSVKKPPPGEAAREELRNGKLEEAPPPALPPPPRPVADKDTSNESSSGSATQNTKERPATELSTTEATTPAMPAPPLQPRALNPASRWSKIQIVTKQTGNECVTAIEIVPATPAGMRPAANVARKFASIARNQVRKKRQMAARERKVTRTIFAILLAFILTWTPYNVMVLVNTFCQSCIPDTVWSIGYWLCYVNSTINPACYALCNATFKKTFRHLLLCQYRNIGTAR
Protocol: as §3, §4
The curves of dependence of functional response on the concentration of compounds for the receptor were made; the level of second messenger—cAMP determined according to the fluorescence after the lysis of cell expressing the receptor was taken as a criterion.

[7] = system: family of adrenergic receptors; experiment: Panel of G-protein-coupled receptors, adrenergic receptors; settings: GPCR panel
From the text: In conjunction with the results of preliminary toxicological studies, the data indicates a reduction in the risk of autonomic dysfunctions, such as tachysystole, orthostatism, accommodation disorder, dysfunction of gastrointestinal tract and urination, weight gain, lack of coordination of muscle movements.

Sequence of D2 dopamine receptors (P14416 whole entry): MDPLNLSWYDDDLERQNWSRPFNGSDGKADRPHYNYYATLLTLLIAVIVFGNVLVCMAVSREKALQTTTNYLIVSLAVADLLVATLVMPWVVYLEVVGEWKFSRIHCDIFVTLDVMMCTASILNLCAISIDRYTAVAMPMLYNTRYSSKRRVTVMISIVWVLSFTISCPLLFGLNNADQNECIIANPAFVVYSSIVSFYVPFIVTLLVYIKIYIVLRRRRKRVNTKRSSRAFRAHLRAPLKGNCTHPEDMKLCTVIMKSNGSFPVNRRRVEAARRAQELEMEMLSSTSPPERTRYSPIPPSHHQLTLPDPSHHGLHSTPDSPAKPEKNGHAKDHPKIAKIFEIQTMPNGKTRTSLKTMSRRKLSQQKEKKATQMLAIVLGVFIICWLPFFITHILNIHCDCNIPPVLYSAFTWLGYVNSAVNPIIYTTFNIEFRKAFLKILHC
Sequence of H1 receptor (P35367 whole entry): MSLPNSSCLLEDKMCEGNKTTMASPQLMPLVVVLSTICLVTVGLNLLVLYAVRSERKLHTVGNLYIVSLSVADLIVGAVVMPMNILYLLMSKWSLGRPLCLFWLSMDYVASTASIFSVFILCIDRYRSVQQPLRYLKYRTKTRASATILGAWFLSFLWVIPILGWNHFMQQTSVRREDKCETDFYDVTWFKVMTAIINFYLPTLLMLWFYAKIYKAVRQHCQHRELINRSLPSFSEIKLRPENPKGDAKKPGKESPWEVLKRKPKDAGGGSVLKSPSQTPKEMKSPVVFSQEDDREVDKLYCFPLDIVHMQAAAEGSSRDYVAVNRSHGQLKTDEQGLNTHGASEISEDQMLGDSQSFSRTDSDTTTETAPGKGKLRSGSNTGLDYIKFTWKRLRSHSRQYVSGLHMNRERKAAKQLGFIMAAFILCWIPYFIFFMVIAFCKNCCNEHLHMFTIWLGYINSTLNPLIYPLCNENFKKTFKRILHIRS

Compound: CN1CCN(C2=Nc3cc(Cl)ccc3Nc3ccccc32)CC1 [Clozapine, reference compound]
- Sedation: total distance traveled by animals ([1]; oral 1, 5 and 10 mg/kg): significantly reduced
- Inhibition of twitches induced by 5-OT [2]: most evident inhibition of twitches
- Increase in the risk of sedation [3]: 8.8 times
- Basophils [4]: 0.6 ± 0.3%
- ESR [4]: 3.8 ± 0.4 mm/h
- Eosinophils [4]: 1.0 ± 0.5%
- Hemoglobin [4]: 154.6 ± 1.9 g/L
- Ht [4]: 43.3 ± 0.5%
- Lymphocytes [4]: 66.6 ± 2.8%
- MCH [4]: 18.4 ± 0.1 pg
- MCHC [4]: 357.4 ± 1.9 g/L
- MCV [4]: 51.6 ± 0.2 fL
- Metamyelocytes [4]: 0.0 ± 0.0%
- Monocytes [4]: 6.4 ± 0.9%
- Myelocytes [4]: 0.0 ± 0.0%
- Number of circulating neutrophils in peripheral blood versus control group [4]: significant increase in the number of circulating neutrophils
- PLT count [4]: 617.6 ± 43.2 10^9/l
- Plasma cells [4]: 0.0 ± 0.0%
- RBC count [4]: 8.39 ± 0.06 10^12/l
- Rt [4]: 80.8 ± 4.1 10^9/l
- Segmented neutrophils [4]: 21.2 ± 2.0%
- Stab neutrophiles [4]: 4.6 ± 0.7 %
- WBC count [4]: 11.6 ± 1.1 10^9/l
- Patients resistant to typical neuroleptics in whom positive symptoms are weakened ([5]; human, in vivo): 30-60%
- Patients with treatment-resistant schizophrenia whose condition improves ([5]; long-term use): 60%

Compound: Clc1ccc2c(c1)N=C(N1CCNCC1)c1ccccc1N2 [Desmethylclozapine, N-desmethylclozapine, reference compound]
- Kb (D2 dopamine receptors): 52 nM
- EC50 (H4 receptor): 2100 nM
- IC50 (H1 receptor): 15 nM
- Kb (D4 dopamine receptors): 190 nM
- Therapeutic window (Kb, D2/Kb, D4) (D4 dopamine receptors): 0.27

- Kb (D2 dopamine receptors): 550 nM
- Concentrations of parent and metabolite in the brain [6]: consistent
- Activating concentration relative to that of norclozapine (M4 muscarinic receptor; M4, agonism): 30 times
- EC50 (M4 muscarinic receptor; M4, agonism set-up): 3200 nM
- IC50 (M4 muscarinic receptor; M4, antagonism set-up): > 10000 nM
- EC50 (H4 receptor): 2000 nM
- IC50 (H1 receptor): 61 nM
- Activity in relation to adrenergic receptors [7]: relatively weak activity
- Kb (D4 dopamine receptors): 350 nM
Compound: Fc1cc2c(cc1Cl)N=C(N1CCNCC1)c1ccccc1N2 [Desmethylfluoroclozapine, 11-(piperazine-1-yl)-7-fluoro-8-chloro-5H-dibenzo[b,e][1,4]diazepine]
- Functional response on M1 receptor (agonism) (M1 receptors): is an agonist and causes a significant response in the therapeutic concentration range
- Sedation: decrease in motor activity ([1]; oral, dose of 10 mg/kg): negligible decrease in motor activity
- Basophils [4]: 0.6 ± 0.3%
- ESR [4]: 4.2 ± 0.4 mm/h
- Eosinophils [4]: 1.0 ± 0.5%
- Hemoglobin [4]: 153.4 ± 2.4 g/L
- Ht [4]: 42.5 ± 0.5%
- Lymphocytes [4]: 66.6 ± 2.8%
- MCH [4]: 18.4 ± 0.1 pg
- MCHC [4]: 360.8 ± 2.2 g/L
- MCV [4]: 50.9 ± 0.2 fL
- Metamyelocytes [4]: 0.0 ± 0.0%
- Monocytes [4]: 6.2 ± 1.0%
- Myelocytes [4]: 0.0 ± 0.0%
- Number of circulating neutrophils in peripheral blood versus control group [4]: did not differ so much different from that of the control group
- PLT count [4]: 653.4 ± 29.8 10^9/l
- Plasma cells [4]: 0.0 ± 0.0%
- RBC count [4]: 8.35 ± 0.07 10^12/l
- Rt [4]: 75.6 ± 3.1 10^9/l
- Segmented neutrophils [4]: 21.4 ± 1.7%
- Stab neutrophiles [4]: 4.2 ± 0.4%
- WBC count [4]: 11.7 ± 0.9 10^9/l
- Therapeutic window (Kb, D2/Kb, D4) (D4 dopamine receptors): 1.6

Compound: OCCOCCN1CCN(C2=Nc3ccccc3Sc3ccccc32)CC1 [Quetiapine, quetiapine]
- Increase in the risk of sedation [3]: 3.7 times
